Results: patent US20240182785A1, “COMPOUND, COMPOSITION, CURED PRODUCT, OPTICALLY ANISOTROPIC BODY, OPTICAL ELEMENT, AND LIGHT GUIDE ELEMENT” (FUJIFILM Corporation, priority 2021, published 2024)

Experiments:
Type in all cases: physicochemical
[1] = Evaluation of liquid crystallinity (hot stage, polarization microscope); set-up: key: A case of having liquid crystallinity was evaluated as A; a case of having no liquid crystallinity was evaluated as B; conditions: heated on a hot stage
Procedure: The respective compounds (the compounds A-1 to A-11 and the compounds B-1 and B-2) were heated on a hot stage and observed with a polarization microscope, and the phase transition temperature was measured to evaluate the presence or absence of the liquid crystallinity. A case of having liquid crystallinity was evaluated as A, and a case of having no liquid crystallinity was evaluated as B. The results are shown in Table 1.
Since the compound A-8 has melting points of 200° C. or higher and undergoes a polymerization reaction during heating, liquid crystallinity could not be evaluated.

[2] = Evaluation of light resistance of optically anisotropic layer (Super Xenon Weather Meter); conditions: rate of change in Re of cured layer (25 parts compound, 75 parts L-1), 5 million lx, 50 hours, 63° C., 50% RH, oxygen-blocking
Procedure: (§1) As shown below, the light resistance and the durability of the optically anisotropic layer produced using the composition containing each of the compounds A-1 to A-11 and the compounds B-1 and B-2 were evaluated.
(§2) A coating liquid having the following composition was prepared and applied by spin-coating, onto a rubbing-treated glass attached with an alignment film. Each composition was irradiated with ultraviolet rays of 300 mJ/cm^2 through a filter that cuts light having a wavelength of 350 nm or less on a hot plate which had been heated to a temperature at which a nematic phase is shown, whereby an optically anisotropic layer for a light resistance/durability test was produced.
(§3) The polymerizable liquid crystal compound L-1 is a mixture obtained by mixing at a
(§4) ratio of the following L-1-1/L-1-2/L-1-3=84/14/2 (in terms of mass ratio).
The produced optically anisotropic layers for light resistance/durability tests were irradiated with light using a Super Xenon Weather Meter SX75 manufactured by Suga Test Instruments Co., Ltd. Using KU-1000100 manufactured by King Seisakusho Co., Ltd. as a UV cut filter, a light resistance test was carried out by irradiation with 5 million lx of light for 50 hours under an oxygen-blocking condition. The temperature of the specimen to be tested (the temperature inside the test device) was set to 63° C. The relative humidity in the test device was 50% RH.
The Re of the optically anisotropic layer before and after the light resistance test was measured, the light resistance in a case where the rate of change in Re described below was less than 10% was evaluated as A, and the light resistance in a case where the rate of change in Re was 10% or more was evaluated as B. The smaller the rate of change in Re, the more excellent the light resistance.
(§5) Rate of change in Re (%)=[100×{|(Re after test)−(Re before test)|}/(Re before test)]
(§6) Re was measured with Axoscan manufactured by Axometrics Inc. at a wavelength of 550 nm, and the measurement temperature was set to room temperature.

[3] = Measurement of Δn (refractive index anisotropy), wedge-shaped liquid crystal cell; conditions: 550 nm, 30° C. or lower limit temperature of nematic phase +0 to 10° C.; some compounds extrapolated from 1/2 mixture with L-1-1
Procedure: The Δn of each of the compounds (the compounds A-1 to A-11 and the compounds B-1 and B-2), which are the compounds to be measured, was measured by a method using a wedge-shaped liquid crystal cell described on page 202 in the Liquid crystal handbook (edited by the liquid crystal handbook editorial board, published by Maruzen Co., Ltd., 2000). Δn was defined as a measured value at a wavelength of 550 nm at 30° C. or the lower limit temperature of the nematic phase +0° C. to 10° C. In a case of a compound which is liable to crystallize or a compound having no liquid crystallinity, evaluation was carried out using a mixture thereof with the other liquid crystal compound, and Δn was estimated from the extrapolated value of the measured value thereof. The following L-1-1 was used as the other liquid crystal compound. As the above mixture, a mixture obtained by mixing at a ratio of the compound to be measured/the L-1-1=1/2 (in terms of mass ratio) was used.
A case where Δn was 0.40 or more was evaluated as A, a case where Δn was 0.35 or more and less than 0.40 was evaluated as B, a case where Δn was 0.30 or more and less than 0.35 was evaluated as C, and a case where Δn was less than 0.30 was evaluated as D. The results are shown in Table 1.

[4] = Evaluation of durability of optically anisotropic layer (moisture-heat resistance test); conditions: rate of change in Re of cured layer (25 parts compound, 75 parts L-1), 136 hours at 100° C., humidity 95%
Procedure: as §1, §2, §3, §4, §5, §6
The produced optically anisotropic layer was allowed to be left for 136 hours at 100° C. and a humidity of 95%, whereby a moisture-heat resistance test was carried out. The rate of change in Re before and after the durability test was evaluated, the durability in a case where the rate of change in Re was less than 10% was evaluated as A, and the durability in a case where the rate of change in Re was 10% or more was evaluated as B. The smaller the rate of change in Re, the more excellent the durability.

[5] = Evaluation of solubility in cyclopentanone; conditions: precipitation concentration in cyclopentanone at 25° C.
Procedure: The solubility of each of the compounds (the compounds A-1 to A-11 and the compounds B-1 and B-2) in cyclopentanone was evaluated.

Liquid crystallinity [1] | SMILES | Light resistance [2] | Δn [3] | Durability [4] | Solubility [5]
A | C=CC(=O)OCCCCSc1nc2ccc(C#Cc3ccc(OCc4ccc5cc(C#Cc6ccc7nc(SCCCCOC(=O)C=C)sc7c6)ccc5c4)c(C(=O)OC)c3)cc2s1 [Compound A-9] | B (the light resistance in a case where the rate of change in Re was 10% or more was evaluated as B) | A (A case where Δn was 0.40 or more was evaluated as A) | A (the durability in a case where the rate of change in Re was less than 10% was evaluated as A) | B (the solubility in a case where the precipitation concentration was less than 5% by mass was evaluated as B)
A | C=CC(=O)OCCSc1ccc(C#Cc2ccc(OCc3ccc4cc(C#Cc5ccc(SCCOC(=O)C=C)cc5)ccc4c3)c(C(=O)OCC)c2)cc1 [Compound A-3] | A (the light resistance in a case where the rate of change in Re described below was less than 10% was evaluated as A) | A (A case where Δn was 0.40 or more was evaluated as A) | A (the durability in a case where the rate of change in Re was less than 10% was evaluated as A) | A (the solubility in a case where the precipitation concentration was 5% by mass or more was evaluated as A)

Second part, the compound before the results:

SMILES | Liquid crystallinity [1] | Light resistance [2] | Δn [3] | Durability [4] | Solubility [5]
C=CC(=O)OCCSc1ccc(C#Cc2ccc(-c3ccc(COc4ccc(C#Cc5ccc(SCCOC(=O)C=C)cc5)cc4C(=O)OC)cc3)cc2)cc1 [Compound A-6] | A | A (the light resistance in a case where the rate of change in Re described below was less than 10% was evaluated as A) | A (A case where Δn was 0.40 or more was evaluated as A) | A (the durability in a case where the rate of change in Re was less than 10% was evaluated as A) | A (the solubility in a case where the precipitation concentration was 5% by mass or more was evaluated as A)
C=CC(=O)OCCSc1ccc(C#Cc2ccc(OC(=O)c3ccc4cc(C#Cc5ccc(SCCOC(=O)C=C)cc5)ccc4c3)c(C(=O)OC)c2)cc1 [Compound A-10] | A | B (the light resistance in a case where the rate of change in Re was 10% or more was evaluated as B) | A (A case where Δn was 0.40 or more was evaluated as A) | A (the durability in a case where the rate of change in Re was less than 10% was evaluated as A) | A (the solubility in a case where the precipitation concentration was 5% by mass or more was evaluated as A)
C=CC(=O)OCCCCOc1ccc(C(=O)Nc2ccc(C#Cc3ccc4cc(OCCCCOC(=O)C=C)ccc4c3)cc2C(F)(F)F)cc1 [Compound B-2, reference compound] | A | A (the light resistance in a case where the rate of change in Re described below was less than 10% was evaluated as A) | C (a case where Δn was 0.30 or more and less than 0.35 was evaluated as C) | A (the durability in a case where the rate of change in Re was less than 10% was evaluated as A) | A (the solubility in a case where the precipitation concentration was 5% by mass or more was evaluated as A)
C=CC(=O)OCCSc1ccc(C#Cc2ccc(OCc3ccc4cc(C#Cc5ccc(SCCOC(=O)C=C)cc5)ccc4c3)cc2)cc1 [Compound A-8] |  | A (the light resistance in a case where the rate of change in Re described below was less than 10% was evaluated as A) | A (A case where Δn was 0.40 or more was evaluated as A) | A (the durability in a case where the rate of change in Re was less than 10% was evaluated as A) | B (the solubility in a case where the precipitation concentration was less than 5% by mass was evaluated as B)
